Experimental data taken from publication PMC11277992, “New Zosteropenillines and Pallidopenillines from the Seagrass-Derived Fungus Penicillium yezoense KMM 4679” (Marine Drugs, 2024).
Read-outs that look alike come from different tables or passages of the source.

Tests used:
Candida albicans KMM 455 = experiment: Antimicrobial activity, microbial growth in broth (OD620); format: cell-based; details: Candida albicans, KMM455; compound at 100 µM; read-out: Inhibition of Microbial Growth, % of Control, C. albicans
Experimental: (§1) The yeast-like fungus Candida albicans KMM 455 and bacterial strains Staphylococcus aureus ATCC 21027 and Escherichia coli VKPM (B-7935) (Collection of Marine Microorganisms PIBOC FEB RAS) were cultured on solid-medium Mueller–Hinton broth with agar (16.0 g/L) in a Petri dish at 37 °C for 24 h. The assays were performed in 96-well microplates in an appropriate Mueller–Hinton broth. Each well contained 90 µL of a bacterial or yeast-like fungal suspension (10^6 CFU/mL). Then, 10 µL was added of a compound diluted at concentrations from 1.5 µM to 100.0 µM using twofold dilution (DMSO concentration < 1%). Culture plates were incubated overnight at 37 °C, and the OD620 was measured using a Multiskan FC spectrophotometer (Thermo Scientific Inc., Beverly, MA, USA). The antibiotic gentamicin and antifungal agent nitrofungin were used as positive controls at 1 mg/mL; 1% DMSO in PBS served as a negative control. Examination was performed twice and in triplicate. The results were calculated as a percentage of the control data using SigmaPlot 14.0 software.

[1] = test system: Escherichia coli VKPM (B-7935); experiment: as above; format: cell-based; details: compound at 100 µM, read-out: Inhibition of Microbial Growth, % of Control, E. coli
Experimental: as §1

[2] = test system: Staphylococcus aureus ATCC 21027; experiment: as above; format: cell-based; details: ATCC21027, compound at 100 µM, read-out: Inhibition of Microbial Growth, % of Control, S. aureus
Experimental: as §1

[3] = test system: normal human kidney cells; experiment: Cytotoxic activity (MTT assay); format: cell-based; details: 100 µM, 24 h
Experimental: (§2) The influence of compounds 1, 2 and 4–14 on the viability of normal human kidney […] cells, as well as human prostate PC-3, cervical HeLa and breast MCF-7 cancer cells, was measured using the MTT assay after 24 h of treatment.
(§3) The human prostate cancer cells PC-3 and CRL-1435 and the human embryonic kidney cells HEK-293 and CRL-1573TM were purchased from the American Type Culture Collection (ATCC; Manassas, VA, USA). PC-3 and HEK-293 cells were cultured in DMEM medium containing 10% fetal bovine serum (Biolot, St. Petersburg, Russia) and 1% penicillin/streptomycin (Biolot, St. Petersburg, Russia) at 37 °C in a humidified atmosphere with 5% (v/v) CO2. The cells were incubated in cultural flasks until sub-confluent (~80%).
PC-3 cells (5 × 10^3 cells/well) and HEK 293 cells (8 × 10^3 cells/well) were seeded in a 96-well plate and incubated overnight. Then, compounds were added at concentrations of 1–100 μM and incubated for another 24 h. Cell viability was then determined by the MTT (3-(4,5-dimethylthiazol-2-yl)-2,5-diphenyltetrazolium bromide) method according to the manufacturer’s instructions (Sigma-Aldrich, St. Louis, MO, USA). The absorbance of the converted formazan was measured using a Multiskan FC microplate photometer (Thermo Scientific, Waltham, MA, USA) at λ = 570 nm. The results are presented as percentages of the control data.

[4] = test system: human prostate PC-3 cancer cells; experiment: Cytotoxic activity (MTT assay); format: cell-based; details: for Cell Viability, % of Control, PC-3: 100 µM, 24 h, MTT; for IC50: Homo sapiens
Experimental: as §3
(§4) PC-3 cells (5 × 10^3 cells/well) and HEK 293 cells (8 × 10^3 cells/well) were seeded in a 96-well plate and incubated overnight. […] Cell viability was then determined by the MTT (3-(4,5-dimethylthiazol-2-yl)-2,5-diphenyltetrazolium bromide) method according to the manufacturer’s instructions (Sigma-Aldrich, St. Louis, MO, USA). The absorbance of the converted formazan was measured using a Multiskan FC microplate photometer (Thermo Scientific, Waltham, MA, USA) at λ = 570 nm. The results are presented as percentages of the control data.

[5] = test system: cervical HeLa cancer cells; experiment: Cytotoxic activity (MTT assay); format: cell-based, human; details: for Cell Viability, % of Control, HeLa: 100 µM, MTT; for IC50: Homo sapiens, HeLa
[6] = test system: breast MCF-7 cancer cells; experiment: Cytotoxic activity (MTT assay); format: cell-based, human; details: for Cell Viability, % of Control, MCF-7: 100 µM, 24 h, MTT; for IC50: Homo sapiens
Experimental: as §2, §4

[7] = test system: autophagy-related cargo protein p62; design: method as in PMID 28218691; details: PC-3 cells; cited from earlier work
[8] = test system: LPS-stimulated RAW264.7 murine macrophages; design: method as in PMID 28218691; details: cited from earlier work
PC-3 cells [9] = experiment: Colony formation (clonogenic) assay; format: cell-based; details: Homo sapiens, PC-3, 240 h; 10 days; read-out: half-maximal concentration of the inhibition of PC-3 colony formation
Experimental: The influence of compounds on colony formation by PC-3 cells was tested by the clonogenic assay. The concentration of PC-3 cells was 0.33 × 10^3/mL. The cells were incubated for 10 days, and then they were fixed with methanol (25 min), staining with 0.5% solution of crystal violet (25 min) and washing with PBS. The counting of grown colonies was carried out using a BIO-PRINT-Cx4 Edge-Fixed Pad-Container (Vilber, Collegien, France) using Bio-Vision Software user and service manual-v18.01 (Vilber, Collegien, France). The results are presented as colony inhibition in comparison with the control.

HeLa cells [10] = experiment: Colony formation (clonogenic) assay; format: cell-based; details: Homo sapiens, 240 h, 10 days, read-out: half-maximal concentration of the inhibition of HeLa colony formation
MCF-7 cells [11] = experiment: Colony formation (clonogenic) assay; format: cell-based; details: Homo sapiens, MCF7, 240 h; 10 days; read-out: half-maximal concentration of the inhibition of MCF-7 colony formation
PC-3 cells [12] = experiment: Migration (scratch) assay; format: cell-based, human; details: 24 h
Experimental: Silicone 2-well inserts (Ibidi®, Gräfelfing, Germany) were used for formation of a free cell zone in the PC-3 cells’ monolayer. After removing the insert, the gap between the cells was 500 ± 50 μm. The cells were washed twice with PBS after removing the inserts and staining with (5,6)-carboxyfluorescein succinimidyl ester (CFDA SE) (Lumiprobe, Moscow, Russia) fluorescence dye. Then, cells were treated with compound or culture medium only (vehicle control) for 24 h. Cell migration into the wound area was observed under a fluorescence microscope (MIB-2-FL; LOMO, St. Petersburg, Russia) with objective 10× magnification.

HeLa cells [13] = experiment: Migration (scratch) assay; format: cell-based, human; details: 24 h
MCF-7 cells [14] = experiment: Migration (scratch) assay; format: cell-based, human; details: 24 h
MCF-7 cells [15] = experiment: Drug combination study with doxorubicin (MTT); format: cell-based, human; details: 24 h
HeLa cells [16] = experiment: Cell viability after pretreatment with 4-OHT (estrogen receptor inhibitor); format: cell-based, human; details: 14 at 75 µM, 4-OHT at 10 µM
Experimental: (§5) To detect the possible target of 14, we used 4-hydroxytamoxifen (4-OHT) at a concentration of 10 µM as a known inhibitor of estrogen receptors (ERs), and the data are presented in Figure 14.
(§6) Figure 14 The influence of 14 (at a 75 µM) on cell viability in the presence of 4-OHT (at 10 µM). Data are presented as the mean ± SEM. * p-value ≤ 0.05 considered significant.

MCF-7 cells [17] = experiment: as above; format: cell-based, human; details: 14 at 75 µM, 4-OHT at 10 µM
Experimental: as §5, §6

PC-3 cells [18] = experiment: as above; format: cell-based, human; details: 14 at 75 µM, 4-OHT at 10 µM
Experimental: as §5, §6

[19] = test system: CoCl2-treated HEK-293 cells; experiment: Cytoprotective activity, CoCl2-mimic hypoxia, cell viability (MTT); format: cell-based, human; details: CoCl2 at 500 µM for 24 h
Experimental: The HEK-293 cells were exposed to cobalt chloride (II) at a 500 µM for 1 h and then the compounds were added. After 24 h, the viability of the cells was measured via MTT assay as described earlier.

[20] = test system: CoCl2-treated HEK-293 cells; experiment: Lipid peroxidation level (MitoCLox) in CoCl2-treated cells; format: cell-based, human; details: toxic effect of CoCl2; MitoCLox fluorescence dye
Experimental: The fluorescence probe MitoCLox (Lumiprobe, Moscow, Russia) was used for the detection of the lipid peroxidation level in CoCl2-treated cells. It was added in the cells for 1 h at a concentration of 200 nM. After 1 h, the cells were washed with PBS and fluorescence was measured in ratiometric mode with λem = 520/590 nm using a PHERAStar FS plate reader (BMG Labtech, Offenburg, Germany). The data were processed with MARS Data Analysis v. 3.01R2 (BMG Labtech, Offenburg, Germany) and calculated as a 520/590 ratio.

| Structure (SMILES) | inhibition of growth at 100 µM (Candida albicans KMM 455) | inhibition of growth at 100 µM [1] | inhibition of growth at 100 µM [2] | Cell Viability, % of Control, HEK-298 [3] | Cell Viability, % of Control, PC-3 [4] | Cell Viability, % of Control, HeLa ([5]; 24 h) | Cell Viability, % of Control, MCF-7 [6] | effect on autophagy-related cargo protein p62 [7] | effect on NO levels [8] | other results |
| --- | --- | --- | --- | --- | --- | --- | --- | --- | --- | --- |
| C[C@H]1CC[C@@H]2[C@@H](C(=O)CCO)[C@](C)(O)C=C[C@H]2C1 [Compound 11, zosteropenilline G] | 18.1 ± 2.58% | 0% | 16.9 ± 4.12% | 93.97 ± 2.36 % of Control | 93.97 ± 2.36 % of Control | 34.35 ± 1.90 % of Control | 81.00 ± 2.38 % of Control | upregulators | – | IC50 ([5]; 24 h, read-out: IC50, HeLa cell viability): 79.7 µM |
| CC1=C[C@H](O)[C@H]2[C@H](O)[C@@H](C)CC[C@@H]2[C@H]1C(=O)CCO [zosteropenilline H] | – | – | – | – | – | – | – | – | downregulate | – |
| CC(=O)OCCC(=O)[C@@H]1[C@H]2CC[C@H](C)[C@@H](O)[C@@H]2C=C[C@@]1(C)O [Compound 14, 1-acetylpallidopenilline A] | 0% | 0% | 31.6 ± 7.8% | 96.92 ± 4.83 % of Control | 45.91 ± 0.67 % of Control | 53.44 ± 2.14 % of Control | 23.71 ± 1.05 % of Control | – | – | IC50 ([4]; PC-3, 24 h, read-out: IC50, PC-3 cell viability): 94.2 ± 1.13 µM; IC50 ([4]; PC-3, 48 h, read-out: IC50, PC-3 cells): 63.4 µM; IC50 ([4]; PC-3, 72 h, read-out: IC50, PC-3 cells): 48.5 µM; IC50 ([5]; 48 h, read-out: IC50, HeLa cells): 82.7 µM; IC50 ([5]; 72 h, read-out: IC50, HeLa cells): 73.2 µM; IC50 ([6]; MCF7, 24 h, read-out: half-maximal inhibition of the viability of MCF-7 cells): 72 ± 2.48 µM; IC50 ([6]; MCF7, 48 h, read-out: IC50, MCF-7 cells): 54.7 µM; IC50 ([6]; MCF7, 72 h, read-out: IC50, MCF-7 cells): 41 µM; IC50 (PC-3 cells [9]): 2.48 ± 0.11 µM; IC50 (HeLa cells [10]): 0.96 ± 0.02 µM; IC50 (MCF-7 cells [11]): 0.66 µM; migration of PC-3 cells (PC-3 cells [12]): did not affect; migration of HeLa cells (HeLa cells [13]): significantly inhibited; migration of MCF-7 cells (MCF-7 cells [14]): significantly inhibited; decrease of MCF-7 cell viability (MCF-7 cells [15]; combination of 14 with doxorubicin at 0.1 µM): 50%; toxicity to MCF-7 cells compared with doxorubicin alone (MCF-7 cells [15]; combination of 14 with doxorubicin at 1 µM): more toxic; cytotoxicity of 14 after pretreatment with 4-OHT versus 14 alone (HeLa cells [16]): No significant differences; cytotoxicity of 14 after pretreatment with 4-OHT versus 14 alone (MCF-7 cells [17]): significant decrease in the cytotoxicity; cytotoxicity of 14 after pretreatment with 4-OHT versus 14 alone (PC-3 cells [18]): No significant differences |
| C[C@@]1(O)C=C[C@H]2C[C@@H](CO)CC[C@@H]2[C@H]1C(=O)CCO [Compound 12, zosteropenilline J] | 6.61 ± 1.12% | 0% | 20.3 ± 1.2% | 87.01 ± 2.71 % of Control | 87.01 ± 2.71 % of Control | 66.70 ± 6.64 % of Control | 82.77 ± 1.36 % of Control | – | downregulate | – |
| [Cl-].[Cl-].[Co+2] [CoCl2, cobalt (II) chloride, reference compound] | – | – | – | – | – | – | – | – | – | decrease of the viability of HEK-293 cells [19]: 75%; lipid peroxide levels in HEK-293 cells [20]: significant increase |
| C[C@@]1(O)CC[C@@H]2[C@H]3C(=O)CCO[C@@]3(C)C=C[C@H]2C1 [zosteropenilline C] | – | – | – | – | – | – | – | upregulators | – | – |
| C[C@H]1CC[C@H]2[C@@H](C=C[C@]3(C)OCCC(=O)[C@H]23)[C@@H]1O [zosteropenilline A] | – | – | – | – | – | – | – | upregulators | – | – |
| C[C@]12C=C[C@H]3C[C@@H](CO)CC[C@@H]3[C@H]1C(=O)CCO2 [zosteropenilline B] | – | – | – | – | – | – | – | – | downregulate | – |
